Source: patent EP0397914A1 (priority 1989, dated 1990)
Values joined by “and” are separate entries in the source; they are usually repeats but may differ in a detail not shown here. Equal values may be shown once.

Experiments:
[1] = Acute toxicity (LD50) in mice; settings: mouse, in vivo, ip; intraperitoneal injection, male ICR mice (6 weeks old), after one week; read-out: LD₅₀
Method: Epigallocatechin gallate was orally administered to male ICR mice (6 weeks old). LD₅₀ of them after one week was 2314 mg/kg. In another case, epigallocatechin gallate was administered to male ICR mice (6 weeks old) by intraperitoneal injection. LD₅₀ of them after one week was 150 mg/kg.

[2] = target: M toxin of A type toxins produced by Clostridium botulinum (Clostridium botulinum, UniProt P0DPI0); settings: in vivo, iv
[3] = target: S toxin of A type toxins produced by Clostridium botulinum (Clostridium botulinum, UniProt P0DPI0); settings: in vivo, iv

Compound | LD50 at 168 h [1] | Remaining toxic activity (%) [2] | Remaining toxic activity (%) [3]
O=C(O[C@@H]1Cc2c(O)cc(O)cc2O[C@@H]1c1cc(O)c(O)c(O)c1)c1cc(O)c(O)c(O)c1 [epigallocatechin gallate, (-) epigallocatechin gallate] | 150 mg/kg | – | –
O=c1c(O)cc([C@H]2Oc3cc(O)cc(O)c3C[C@H]2O)cc2c([C@H]3Oc4cc(O)cc(O)c4C[C@H]3O)cc(O)c(O)c12 [free theaflavin] | – | 9.9% and 7.6% | 4.4% and 6.1%
